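Dose response: 5 concentrations. Exposure: 48 h. Format: 96-well plates. Endpoint: linear interpolation; highest concentration if not reached. TGI: total growth inhibition.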
Experiments:
Assay in all cases: NCI tumour cell line growth inhibition, 48 h
[1] = tested on: 786-0 renal
[2] = tested on: A549 NSCLC
[3] = tested on: ACHN renal
[4] = tested on: CAKI-1 renal
[5] = tested on: CCRF-CEM leukemia
[6] = tested on: COLO 205 colon
[7] = tested on: DLD-1 colon
[8] = tested on: DMS 114 small cell lung
[9] = tested on: DMS 273 small cell lung
[10] = tested on: EKVX NSCLC
[11] = tested on: HCC-2998 colon
[12] = tested on: HCT-116 colon
[13] = tested on: HCT-15 colon
[14] = tested on: HL-60(TB) leukemia
[15] = tested on: HOP-62 NSCLC
[16] = tested on: HOP-92 NSCLC
[17] = tested on: HT29 colon
[18] = tested on: IGROV1 ovarian
[19] = tested on: K-562 leukemia
[20] = tested on: KM12 colon
[21] = tested on: KM20L2 colon
[22] = tested on: LOX IMVI melanoma
[23] = tested on: LXFL 529 NSCLC
[24] = tested on: M14 melanoma
[25] = tested on: M19-MEL melanoma
[26] = tested on: MALME-3M melanoma
[27] = tested on: MOLT-4 leukemia
[28] = tested on: NCI-H226 lung
[29] = tested on: NCI-H23 lung
[30] = tested on: NCI-H460 lung
[31] = tested on: NCI-H522 lung
[32] = tested on: OVCAR-3 ovarian
[33] = tested on: OVCAR-4 ovarian
[34] = tested on: OVCAR-5 ovarian
[35] = tested on: OVCAR-8 ovarian
[36] = tested on: RPMI-8226 leukemia
[37] = tested on: RXF 393 renal
[38] = tested on: RXF-631 renal
[39] = tested on: SF-268 CNS
[40] = tested on: SF-295 CNS
[41] = tested on: SF-539 CNS
[42] = tested on: SK-MEL-2 melanoma
[43] = tested on: SK-MEL-28 melanoma
[44] = tested on: SK-MEL-5 melanoma
[45] = tested on: SK-OV-3 ovarian
[46] = tested on: SN12C renal
[47] = tested on: SNB-19 CNS
[48] = tested on: SNB-75 CNS
[49] = tested on: SNB-78 CNS
[50] = tested on: SR leukemia
[51] = tested on: SW-620 colon
[52] = tested on: TK-10 renal
[53] = tested on: U251 CNS
[54] = tested on: UACC-257 melanoma
[55] = tested on: UACC-62 melanoma
[56] = tested on: UO-31 renal
[57] = tested on: XF 498 CNS

## COC1=CC(=Nc2c(Cl)cc(Cl)cc2OC(=O)c2ccc([N+](=O)[O-])cc2)C=C(OC)C1=O
[1]
  TGI: 28 µM
[2]
  TGI: 23.4 µM
[3]
  TGI: 22.6 µM
[4]
  TGI: 31.7 µM
[5]
  TGI: > 25.9 µM
[6]
  TGI: 33.6 µM
[7]
  TGI: 30 µM
[8]
  TGI: 8.52 µM
[9]
  TGI: 30.5 µM
[10]
  TGI: 29.5 µM
[11]
  TGI: 32.4 µM
[12]
  TGI: 18.9 µM
[13]
  TGI: 20.8 µM
[14]
  TGI: 12.1 µM
[15]
  TGI: 36.2 µM
[16]
  TGI: 14.8 µM
[17]
  TGI: 33.5 µM
[18]
  TGI: 31.2 µM
[19]
  TGI: 27 µM
[20]
  TGI: 29.4 µM
[21]
  TGI: 32.8 µM
[22]
  TGI: 5.67 µM
[23]
  TGI: 18.5 µM
[24]
  TGI: 25.8 µM
[25]
  TGI: 10.8 µM
[26]
  TGI: 28.9 µM
[27]
  TGI: 26.7 µM
[28]
  TGI: 28.7 µM
[29]
  TGI: 22.9 µM
[30]
  TGI: 31.3 µM
[31]
  TGI: 23.6 µM
[32]
  TGI: 20.9 µM
[33]
  TGI: 21.9 µM
[34]
  TGI: 33.7 µM
[35]
  TGI: 20.2 µM
[36]
  TGI: > 39.1 µM
[37]
  TGI: 24.6 µM
[38]
  TGI: 11.1 µM
[39]
  TGI: 23.2 µM
[40]
  TGI: 23.7 µM
[41]
  TGI: 23.4 µM
[42]
  TGI: 29.9 µM
[43]
  TGI: 30.5 µM
[44]
  TGI: 20.4 µM
[45]
  TGI: 30.8 µM
[46]
  TGI: 24.3 µM
[47]
  TGI: 30 µM
[48]
  TGI: 27.8 µM
[49]
  TGI: 56.9 µM
[50]
  TGI: 15.3 µM
[51]
  TGI: 26.8 µM
[52]
  TGI: 37.4 µM
[53]
  TGI: 27.1 µM
[54]
  TGI: 24.2 µM
[55]
  TGI: 15.6 µM
[56]
  TGI: 24.3 µM
[57]
  TGI: 21.5 µM

## CCOC(=O)C(C)c1c(C(=O)c2ccc(C)nc2)c2ccccc2n1C (configuration not stated)
[1]
  TGI: > 100 µM
[2]
  TGI: > 100 µM
[3]
  TGI: > 100 µM
[4]
  TGI: > 100 µM
[5]
  TGI: > 100 µM
[6]
  TGI: > 100 µM
[7]
  TGI: > 100 µM
[8]
  TGI: > 100 µM
[9]
  TGI: > 100 µM
[10]
  TGI: > 100 µM
[11]
  TGI: > 100 µM
[13]
  TGI: > 100 µM
[14]
  TGI: > 100 µM
[15]
  TGI: > 100 µM
[16]
  TGI: > 100 µM
[17]
  TGI: > 100 µM
[18]
  TGI: > 100 µM
[19]
  TGI: > 100 µM
[20]
  TGI: > 100 µM
[21]
  TGI: > 100 µM
[22]
  TGI: > 100 µM
[23]
  TGI: > 100 µM
[24]
  TGI: > 100 µM
[25]
  TGI: > 100 µM
[26]
  TGI: > 100 µM
[27]
  TGI: > 100 µM
[29]
  TGI: > 100 µM
[30]
  TGI: > 100 µM
[31]
  TGI: > 100 µM
[32]
  TGI: > 100 µM
[33]
  TGI: > 100 µM
[34]
  TGI: > 100 µM
[35]
  TGI: > 100 µM
[36]
  TGI: > 100 µM
[37]
  TGI: > 100 µM
[38]
  TGI: > 100 µM
[39]
  TGI: > 100 µM
[40]
  TGI: > 100 µM
[42]
  TGI: > 100 µM
[43]
  TGI: > 100 µM
[44]
  TGI: > 100 µM
[45]
  TGI: > 100 µM
[46]
  TGI: > 100 µM
[48]
  TGI: > 100 µM
[49]
  TGI: > 100 µM
[51]
  TGI: > 100 µM
[52]
  TGI: > 100 µM
[54]
  TGI: > 100 µM
[55]
  TGI: > 100 µM
[57]
  TGI: > 100 µM
